In the supplement of paper PMC10307832:

Columns and labels:
Test in all cases: relative viability (nuclei count vs DMSO), 5 days (fraction); higher = more cells survive
A-427 = tested on: A-427
In short: (§1)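 Relative viability is defined as nuclei in treated wells over nuclei in vehicle wells. Duplicate plates were run and medians reported. Lung cancer cell lines in 1536-well plates were dosed by pin tool one day after seeding, with one drug or with a fixed anchor-drug dose plus five library-drug doses (not always all listed) in √10 steps, and nuclei were counted after 5 days.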

ABC-1 = tested on: ABC-1
In short: as §1

CAL-12T = tested on: CAL-12T
In short: as §1

H3255 = tested on: H3255
In short: as §1

LCLC-97TM1 = tested on: LCLC-97TM1
In short: as §1

LK-2 = tested on: LK-2
In short: as §1

NCI-H1355 = tested on: NCI-H1355
In short: as §1

NCI-H1395 = tested on: NCI-H1395
In short: as §1

NCI-H1651 = tested on: NCI-H1651
In short: as §1

NCI-H1666 = tested on: NCI-H1666
In short: as §1

NCI-H1792 = tested on: NCI-H1792
In short: as §1

NCI-H1915 = tested on: NCI-H1915
In short: as §1

NCI-H2085 = tested on: NCI-H2085
In short: as §1

NCI-H2087 = tested on: NCI-H2087
In short: as §1

NCI-H2228 = tested on: NCI-H2228
In short: as §1

NCI-H322M = tested on: NCI-H322M
In short: as §1

NCI-H358 = tested on: NCI-H358
In short: as §1

NCI-H661 = tested on: NCI-H661
In short: as §1

NCI-H838 = tested on: NCI-H838
In short: as §1

PC-14 = tested on: PC-14
In short: as §1

PC-3 [JPC-3] = tested on: PC-3 [JPC-3]
In short: as §1

SK-MES-1 = tested on: SK-MES-1
In short: as §1

UMC-11 = tested on: UMC-11
In short: as §1

O=C(O)CCCCC(CCSCc1ccccc1)SCc1ccccc1 (centres undefined) [CPI-613] + O=C(c1cc(Cc2n[nH]c(=O)c3ccccc23)ccc1F)N1CCN(C(=O)C2CC2)CC1 [Olaparib] (partner 8 µM)
relative viability (A-427; first compound 5 µM): 0.775
relative viability (A-427; first compound 15.81 µM): 0.7
relative viability (A-427; first compound 50 µM): 0.711
relative viability (A-427; first compound 158.11 µM): 0.229
relative viability (A-427; first compound 500 µM): 0.177
relative viability (ABC-1; first compound 5 µM): 0.816
relative viability (ABC-1; first compound 15.81 µM): 0.845
relative viability (ABC-1; first compound 50 µM): 0.957
relative viability (ABC-1; first compound 158.11 µM): 0.448
relative viability (ABC-1; first compound 500 µM): 0.383
relative viability (CAL-12T; first compound 5 µM): 0.72
relative viability (CAL-12T; first compound 15.81 µM): 0.634
relative viability (CAL-12T; first compound 50 µM): 0.627
relative viability (CAL-12T; first compound 158.11 µM): 0.473
relative viability (CAL-12T; first compound 500 µM): 0.488
relative viability (H3255; first compound 5 µM): 0.539
relative viability (H3255; first compound 15.81 µM): 0.587
relative viability (H3255; first compound 50 µM): 0.557
relative viability (H3255; first compound 158.11 µM): 0.527
relative viability (H3255; first compound 500 µM): 0.517
relative viability (LCLC-97TM1; first compound 5 µM): 0.322
relative viability (LCLC-97TM1; first compound 15.81 µM): 0.287
relative viability (LCLC-97TM1; first compound 50 µM): 0.372
relative viability (LCLC-97TM1; first compound 158.11 µM): 0.183
relative viability (LCLC-97TM1; first compound 500 µM): 0.191
relative viability (LK-2; first compound 5 µM): 0.714
relative viability (LK-2; first compound 15.81 µM): 0.702
relative viability (LK-2; first compound 50 µM): 0.749
relative viability (LK-2; first compound 158.11 µM): 0.796
relative viability (LK-2; first compound 500 µM): 0.736
relative viability (NCI-H1355; first compound 5 µM): 0.728
relative viability (NCI-H1355; first compound 15.81 µM): 0.706
relative viability (NCI-H1355; first compound 50 µM): 0.714
relative viability (NCI-H1355; first compound 158.11 µM): 0.376
relative viability (NCI-H1355; first compound 500 µM): 0.0737
relative viability (NCI-H1395; first compound 5 µM): 0.473
relative viability (NCI-H1395; first compound 15.81 µM): 0.479
relative viability (NCI-H1395; first compound 50 µM): 0.469
relative viability (NCI-H1395; first compound 158.11 µM): 0.436
relative viability (NCI-H1395; first compound 500 µM): 0.266
relative viability (NCI-H1651; first compound 5 µM): 0.189
relative viability (NCI-H1651; first compound 15.81 µM): 0.192
relative viability (NCI-H1651; first compound 50 µM): 0.189
relative viability (NCI-H1651; first compound 158.11 µM): 0.198
relative viability (NCI-H1651; first compound 500 µM): 0.175
relative viability (NCI-H1666; first compound 5 µM): 0.749
relative viability (NCI-H1666; first compound 15.81 µM): 0.772
relative viability (NCI-H1666; first compound 50 µM): 0.865
relative viability (NCI-H1666; first compound 158.11 µM): 0.304
relative viability (NCI-H1666; first compound 500 µM): 0.396
relative viability (NCI-H1792; first compound 5 µM): 0.391
relative viability (NCI-H1792; first compound 15.81 µM): 0.358
relative viability (NCI-H1792; first compound 50 µM): 0.328
relative viability (NCI-H1792; first compound 158.11 µM): 0.0603
relative viability (NCI-H1792; first compound 500 µM): 0.087
relative viability (NCI-H1915; first compound 5 µM): 0.25
relative viability (NCI-H1915; first compound 15.81 µM): 0.258
relative viability (NCI-H1915; first compound 50 µM): 0.265
relative viability (NCI-H1915; first compound 158.11 µM): 0.124
relative viability (NCI-H1915; first compound 500 µM): 0.0608
relative viability (NCI-H2085; first compound 5 µM): 0.745
relative viability (NCI-H2085; first compound 15.81 µM): 0.712
relative viability (NCI-H2085; first compound 50 µM): 0.725
relative viability (NCI-H2085; first compound 158.11 µM): 0.362
relative viability (NCI-H2085; first compound 500 µM): 0.209
relative viability (NCI-H2087; first compound 5 µM): 0.517
relative viability (NCI-H2087; first compound 15.81 µM): 0.522
relative viability (NCI-H2087; first compound 50 µM): 0.627
relative viability (NCI-H2087; first compound 158.11 µM): 0.0403
relative viability (NCI-H2087; first compound 500 µM): 0.0077
relative viability (NCI-H2228; first compound 5 µM): 0.532
relative viability (NCI-H2228; first compound 15.81 µM): 0.411
relative viability (NCI-H2228; first compound 50 µM): 0.634
relative viability (NCI-H2228; first compound 158.11 µM): 0.628
relative viability (NCI-H2228; first compound 500 µM): 0.185
relative viability (NCI-H322M; first compound 5 µM): 0.74
relative viability (NCI-H322M; first compound 15.81 µM): 0.769
relative viability (NCI-H322M; first compound 50 µM): 0.761
relative viability (NCI-H322M; first compound 158.11 µM): 0.594
relative viability (NCI-H322M; first compound 500 µM): 0.106
relative viability (NCI-H358; first compound 5 µM): 0.532
relative viability (NCI-H358; first compound 15.81 µM): 0.518
relative viability (NCI-H358; first compound 50 µM): 0.572
relative viability (NCI-H358; first compound 158.11 µM): 0.126
relative viability (NCI-H358; first compound 500 µM): 0.112
relative viability (NCI-H661; first compound 5 µM): 0.714
relative viability (NCI-H661; first compound 15.81 µM): 0.726
relative viability (NCI-H661; first compound 50 µM): 0.718
relative viability (NCI-H661; first compound 158.11 µM): 0.399
relative viability (NCI-H661; first compound 500 µM): 0.153
relative viability (NCI-H838; first compound 5 µM): 0.79
relative viability (NCI-H838; first compound 15.81 µM): 0.705
relative viability (NCI-H838; first compound 50 µM): 0.721
relative viability (NCI-H838; first compound 158.11 µM): 0.278
relative viability (NCI-H838; first compound 500 µM): 0.115
relative viability (PC-14; first compound 5 µM): 0.283
relative viability (PC-14; first compound 15.81 µM): 0.231
relative viability (PC-14; first compound 50 µM): 0.262
relative viability (PC-14; first compound 158.11 µM): 0.078
relative viability (PC-14; first compound 500 µM): 0.0073
relative viability (PC-3 [JPC-3]; first compound 5 µM): 1.11
relative viability (PC-3 [JPC-3]; first compound 50 µM): 0.953
relative viability (PC-3 [JPC-3]; first compound 158.11 µM): 0.32
relative viability (PC-3 [JPC-3]; first compound 500 µM): 0.1
relative viability (SK-MES-1; first compound 5 µM): 0.641
relative viability (SK-MES-1; first compound 15.81 µM): 0.635
relative viability (SK-MES-1; first compound 50 µM): 0.556
relative viability (SK-MES-1; first compound 158.11 µM): 0.163
relative viability (SK-MES-1; first compound 500 µM): 0.0936
relative viability (UMC-11; first compound 5 µM): 0.352
relative viability (UMC-11; first compound 15.81 µM): 0.371
relative viability (UMC-11; first compound 50 µM): 0.375
relative viability (UMC-11; first compound 158.11 µM): 0.155
relative viability (UMC-11; first compound 500 µM): 0.115
